Measurements published in US20100304363A1 (E[…] TELECOMM[…] INSTITUTE, priority 2009, published 2010).

What was measured:
[1] = tested on: M-Type antigen (SARS coronavirus protein antigen, ProSci); type: binding
[2] = tested on: E-type antigen (SARS coronavirus protein antigen, ProSci); type: binding

With Ala-Ile the “M (mean value)” value [1] was 0.057, the “M-Type Ranking” value [1] was 30 and the “E Value” [2] was 0.154. For the same substance, the “E-Type Ranking” value [2] was 17.

With Arg-Phe the “M (mean value)” value [1] was 0.072, the “M-Type Ranking” value [1] was 21 and the “E Value” [2] was 0.183. For the same substance, the “E-Type Ranking” value [2] was 9.

Asp-Cys was tested, and the “M (mean value)” value [1] was 0.114, the “M-Type Ranking” value [1] was 5 and the “E Value” [2] was 0.238. For the same substance, the “E-Type Ranking” value [2] was 5.

For Asp-Glu, the “M (mean value)” value [1] was 0.169, the “M-Type Ranking” value [1] was 2 and the “E Value” [2] was 0.520. For the same substance, the “E-Type Ranking” value [2] was 2.

In the case of Asp-Ser, the “M (mean value)” value [1] is reported as 0.087, the “M-Type Ranking” value [1] is reported as 11 and the “E Value” [2] is reported as 0.132. The “E-Type Ranking” value [2] was 25.

In the case of Cys-Asp, the “M (mean value)” value [1] is reported as 0.144, the “M-Type Ranking” value [1] is reported as 3 and the “E Value” [2] is reported as 0.326. The “E-Type Ranking” value [2] was 4.

In the case of Cys-Glu, the “M (mean value)” value [1] is reported as 0.143, the “M-Type Ranking” value [1] is reported as 4 and the “E Value” [2] is reported as 0.356. The “E-Type Ranking” value [2] was 3.

With Cys-Phe the “M (mean value)” value [1] was 0.069, the “M-Type Ranking” value [1] was 24 and the “E Value” [2] was 0.165. For the same substance, the “E-Type Ranking” value [2] was 13.

For Gln-Trp, the “M (mean value)” value [1] was 0.093, the “M-Type Ranking” value [1] was 8 and the “E Value” [2] was 0.166. For the same substance, the “E-Type Ranking” value [2] was 12.

For Glu-Asp, the “M (mean value)” value [1] was 0.186, the “M-Type Ranking” value [1] was 1 and the “E Value” [2] was 0.552. For the same substance, the “E-Type Ranking” value [2] was 1.

In the case of Glu-Ser, the “M (mean value)” value [1] is reported as 0.111, the “M-Type Ranking” value [1] is reported as 6 and the “E Value” [2] is reported as 0.198. For the same substance, the “E-Type Ranking” value [2] was 6.

In the case of Ile-Met, the “M (mean value)” value [1] is reported as 0.074, the “M-Type Ranking” value [1] is reported as 18 and the “E Value” [2] is reported as 0.139. The “E-Type Ranking” value [2] was 22.

Leu-Val was tested, and the “M (mean value)” value [1] was 0.088, the “M-Type Ranking” value [1] was 10 and the “E Value” [2] was 0.147. For the same substance, the “E-Type Ranking” value [2] was 21.

Lys-Phe was tested, and the “M (mean value)” value [1] was 0.080, the “M-Type Ranking” value [1] was 14 and the “E Value” [2] was 0.154. The “E-Type Ranking” value [2] was 16.

Phe-Arg was tested, and the “M (mean value)” value [1] was 0.080, the “M-Type Ranking” value [1] was 13 and the “E Value” [2] was 0.167. For the same substance, the “E-Type Ranking” value [2] was 11.

For Phe-Leu, the “M (mean value)” value [1] was 0.061, the “M-Type Ranking” value [1] was 27 and the “E Value” [2] was 0.198. For the same substance, the “E-Type Ranking” value [2] was 6.

In the case of Phe-Met, the “M (mean value)” value [1] is reported as 0.059, the “M-Type Ranking” value [1] is reported as 29 and the “E Value” [2] is reported as 0.190. The “E-Type Ranking” value [2] was 8.

For Phe-Phe, the “M (mean value)” value [1] was 0.059, the “M-Type Ranking” value [1] was 28 and the “E Value” [2] was 0.116. The “E-Type Ranking” value [2] was 29.

With Phe-Trp the “M (mean value)” value [1] was 0.071, the “M-Type Ranking” value [1] was 22 and the “E Value” [2] was 0.159. The “E-Type Ranking” value [2] was 14.

For Phe-Tyr, the “M (mean value)” value [1] was 0.078, the “M-Type Ranking” value [1] was 15 and the “E Value” [2] was 0.127. For the same substance, the “E-Type Ranking” value [2] was 26.

With Ser-Asp the “M (mean value)” value [1] was 0.091, the “M-Type Ranking” value [1] was 9 and the “E Value” [2] was 0.136. For the same substance, the “E-Type Ranking” value [2] was 23.

With Ser-Cys the “M (mean value)” value [1] was 0.087, the “M-Type Ranking” value [1] was 12 and the “E Value” [2] was 0.149. For the same substance, the “E-Type Ranking” value [2] was 19.

For Ser-Glu, the “M (mean value)” value [1] was 0.073, the “M-Type Ranking” value [1] was 20 and the “E Value” [2] was 0.135. The “E-Type Ranking” value [2] was 24.

For Trp-Gln, the “M (mean value)” value [1] was 0.073, the “M-Type Ranking” value [1] was 19 and the “E Value” [2] was 0.155. The “E-Type Ranking” value [2] was 15.

For Trp-Phe, the “M (mean value)” value [1] was 0.069, the “M-Type Ranking” value [1] was 23 and the “E Value” [2] was 0.148. The “E-Type Ranking” value [2] was 20.

With Tyr-Gln the “M (mean value)” value [1] was 0.069, the “M-Type Ranking” value [1] was 25 and the “E Value” [2] was 0.122. For the same substance, the “E-Type Ranking” value [2] was 27.

In the case of Tyr-Trp, the “M (mean value)” value [1] is reported as 0.063, the “M-Type Ranking” value [1] is reported as 26 and the “E Value” [2] is reported as 0.090. For the same substance, the “E-Type Ranking” value [2] was 30.

In the case of Val-Ala, the “M (mean value)” value [1] is reported as 0.077, the “M-Type Ranking” value [1] is reported as 17 and the “E Value” [2] is reported as 0.118. For the same substance, the “E-Type Ranking” value [2] was 28.

Val-Met was tested, and the “M (mean value)” value [1] was 0.094, the “M-Type Ranking” value [1] was 7 and the “E Value” [2] was 0.151. The “E-Type Ranking” value [2] was 18.
